ChEMBL document CHEMBL1201862, “PubChem BioAssay data set” (2004)
Calls of active or inactive are those of the source.

Tests used:
Cytochrome P450 2D6 = Cytochrome P450 2D6 (Homo sapiens, UniProt P10635);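 note: CYP2D6 member of a cytochrome P450 panel assay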
Cytochrome P450 3A4 = Cytochrome P450 3A4 (Homo sapiens, UniProt P08684);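 note: CYP3A4 tested as one member of a cytochrome P450 panel screen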
Cytochrome P450 2C9 = Cytochrome P450 2C9 (Homo sapiens, UniProt P11712)
Cytochrome P450 2C19 = Cytochrome P450 2C19 (Homo sapiens, UniProt P33261); experiment: Cytochrome panel assay with activity outcomes. Panel member name: p450-cyp2c19 Compounds with AC50 equal or less than 10 uM are considered active; type: functional
Cytochrome P450 2C19, sequence (P33261 whole entry): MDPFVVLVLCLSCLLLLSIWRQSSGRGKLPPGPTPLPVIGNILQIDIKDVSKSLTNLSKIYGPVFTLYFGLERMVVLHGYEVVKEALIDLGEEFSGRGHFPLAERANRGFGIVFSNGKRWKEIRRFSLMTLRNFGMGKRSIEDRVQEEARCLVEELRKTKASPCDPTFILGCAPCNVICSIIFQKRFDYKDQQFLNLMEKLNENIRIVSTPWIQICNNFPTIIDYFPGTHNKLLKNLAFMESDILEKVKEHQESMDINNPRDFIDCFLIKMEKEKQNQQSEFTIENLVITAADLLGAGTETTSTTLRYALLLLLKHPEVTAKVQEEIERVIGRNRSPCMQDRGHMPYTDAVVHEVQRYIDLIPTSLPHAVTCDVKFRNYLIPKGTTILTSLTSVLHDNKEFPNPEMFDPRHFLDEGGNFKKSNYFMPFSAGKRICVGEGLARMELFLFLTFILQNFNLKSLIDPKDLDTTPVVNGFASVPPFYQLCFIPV

[1] = biological target: T1, Rac GTPase-activating protein 1 (Homo sapiens, UniProt Q9H0H5); experiment: blockers of MgcRacGAP-driven Rac1 GTP hydrolysis – biochemical, ADP Hunter fluorescence, primary and confirmatory, confirmation (AID 624330); type: functional
T1 sequence (Q9H0H5 whole entry): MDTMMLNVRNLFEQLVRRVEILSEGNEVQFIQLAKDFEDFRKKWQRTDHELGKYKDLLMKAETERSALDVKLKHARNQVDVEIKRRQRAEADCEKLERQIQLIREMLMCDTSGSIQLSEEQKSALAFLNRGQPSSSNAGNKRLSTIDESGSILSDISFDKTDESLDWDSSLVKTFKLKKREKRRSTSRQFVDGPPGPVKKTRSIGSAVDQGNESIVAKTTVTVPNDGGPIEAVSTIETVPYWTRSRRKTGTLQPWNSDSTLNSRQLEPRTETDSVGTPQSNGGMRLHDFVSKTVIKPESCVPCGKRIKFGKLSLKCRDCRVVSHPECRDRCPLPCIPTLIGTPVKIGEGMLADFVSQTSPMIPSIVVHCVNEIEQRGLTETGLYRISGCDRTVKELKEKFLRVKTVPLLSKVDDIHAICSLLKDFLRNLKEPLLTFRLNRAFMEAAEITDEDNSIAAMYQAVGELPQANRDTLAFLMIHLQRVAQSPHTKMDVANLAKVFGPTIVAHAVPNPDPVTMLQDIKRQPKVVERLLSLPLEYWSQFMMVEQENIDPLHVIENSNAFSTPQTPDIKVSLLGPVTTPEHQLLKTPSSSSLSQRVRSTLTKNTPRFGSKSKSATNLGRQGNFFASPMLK

Streptokinase A = biological target: T2, Streptokinase A (Streptococcus pyogenes serotype M1, UniProt P10520); experiment: viability-normalized secreted streptokinase activity reduction – plasminogen activation absorbance, OD405, dose response (AID 1914); type: functional, Streptococcus pyogenes M1 GAS;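 note: secreted streptokinase activity via plasminogen activation per viability signal from cell pellet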
T2 sequence (P10520 whole entry): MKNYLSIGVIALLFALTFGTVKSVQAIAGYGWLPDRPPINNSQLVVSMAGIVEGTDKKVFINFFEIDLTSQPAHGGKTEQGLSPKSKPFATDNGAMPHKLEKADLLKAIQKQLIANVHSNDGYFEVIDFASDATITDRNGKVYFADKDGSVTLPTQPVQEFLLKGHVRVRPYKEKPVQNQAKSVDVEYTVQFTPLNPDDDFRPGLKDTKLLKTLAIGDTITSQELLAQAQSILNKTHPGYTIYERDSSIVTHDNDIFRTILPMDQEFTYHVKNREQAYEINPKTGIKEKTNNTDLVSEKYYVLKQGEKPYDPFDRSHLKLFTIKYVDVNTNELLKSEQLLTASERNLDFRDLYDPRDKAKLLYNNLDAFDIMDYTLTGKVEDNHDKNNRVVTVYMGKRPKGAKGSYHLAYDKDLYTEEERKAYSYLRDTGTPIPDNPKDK

[2] = Trypanosoma cruzi growth suppression in host cells – NIH3T3 host cells, beta-gal luminescence, confirmation (AID 2044); type: functional, cell-based;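 note: intracellular parasites grown in NIH/3T3 mouse fibroblasts as host cells; luminescent beta-galactosidase reporter signal from transgenic T. cruzi replicating inside host cells; inhibitors lower the luminescence signal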
[3] = NIH3T3 cell viability loss – ATP luminescence, mouse fibroblasts, counter-screen, dose response (AID 2010); type: functional, cell-based;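 note: cells exposed to compound for about 90 hours before reading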
[4] = test system: Streptococcus sp. 'group A'; experiment: Streptococcus pyogenes SK(-)GAS viability under kanamycin – luminescence, BacTiterGlo, confirmation, counter-screen for streptokinase expression inhibitor project, dose response (AID 1900); type: functional, organism-based
Streptococcus = experiment: GAS UMAA2166 growth inhibition – luminescence, BacTiterGlo, counter-screen for streptokinase expression inhibitor project, dose response (AID 1915); type: functional, organism-based;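 note: potency for reduction of bacterial viability or growth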
H4 = experiment: Luminescence Cell-Based Dose Response HTS to Identify Activators of 5'UTR Stem-Loop Driven Prion Protein mRNA Translation in H4 Neuroglioblastoma Cells. [Related pubchem assays: 1829 (Project Summary), 1814 (Primary HTS)]; type: functional; conditions: Homo sapiens
[5] = Luminescence Cell-Based Dose Response HTS to Identify Activators of Luciferase Translation or Activity in H4 […] Cells. [Related pubchem assays: 1829 (Project Summary), 1814 (Primary HTS)]; type: functional
cells = type: functional
[6] = biological target: T3, Corticotropin-releasing factor receptor 2/Corticotropin-releasing factor-binding protein (Homo sapiens, UniProt P24387+Q13324); experiment: activators of CRF receptor 2 with binding protein – uHTS hits, confirmation (AID 602473); type: functional; conditions: read-out: EC50_Mean
T3 sequence (Q13324 whole entry): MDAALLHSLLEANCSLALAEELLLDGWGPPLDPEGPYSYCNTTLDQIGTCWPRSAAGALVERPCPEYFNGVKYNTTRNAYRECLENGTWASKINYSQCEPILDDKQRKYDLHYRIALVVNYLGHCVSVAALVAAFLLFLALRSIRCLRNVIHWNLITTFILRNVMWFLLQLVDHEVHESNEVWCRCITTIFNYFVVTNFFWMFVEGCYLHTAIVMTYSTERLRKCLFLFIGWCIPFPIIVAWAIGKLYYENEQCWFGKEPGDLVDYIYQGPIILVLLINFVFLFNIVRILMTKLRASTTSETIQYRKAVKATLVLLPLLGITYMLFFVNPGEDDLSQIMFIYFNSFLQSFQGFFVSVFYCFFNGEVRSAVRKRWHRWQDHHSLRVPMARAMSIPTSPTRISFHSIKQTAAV
T3 sequence (P24387 whole entry): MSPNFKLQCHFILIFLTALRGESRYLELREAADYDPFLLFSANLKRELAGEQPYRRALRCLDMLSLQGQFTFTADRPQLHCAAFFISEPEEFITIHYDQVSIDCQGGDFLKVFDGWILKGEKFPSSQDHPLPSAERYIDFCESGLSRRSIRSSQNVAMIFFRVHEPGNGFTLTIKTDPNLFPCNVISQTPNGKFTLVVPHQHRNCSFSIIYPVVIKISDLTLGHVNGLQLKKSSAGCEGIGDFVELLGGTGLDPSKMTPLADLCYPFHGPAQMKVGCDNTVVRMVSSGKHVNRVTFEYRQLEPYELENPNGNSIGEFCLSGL

[7] = biological target: T3, Corticotropin-releasing factor receptor 2/Corticotropin-releasing factor-binding protein; experiment: Dose Response confirmation of uHTS hits for small molecule antagonists of the CRF-binding protein and CRF-R2 receptor complex.; type: functional; conditions: read-out: IC50_Mean

Cytochrome P450 2D6, sequence (P10635 whole entry): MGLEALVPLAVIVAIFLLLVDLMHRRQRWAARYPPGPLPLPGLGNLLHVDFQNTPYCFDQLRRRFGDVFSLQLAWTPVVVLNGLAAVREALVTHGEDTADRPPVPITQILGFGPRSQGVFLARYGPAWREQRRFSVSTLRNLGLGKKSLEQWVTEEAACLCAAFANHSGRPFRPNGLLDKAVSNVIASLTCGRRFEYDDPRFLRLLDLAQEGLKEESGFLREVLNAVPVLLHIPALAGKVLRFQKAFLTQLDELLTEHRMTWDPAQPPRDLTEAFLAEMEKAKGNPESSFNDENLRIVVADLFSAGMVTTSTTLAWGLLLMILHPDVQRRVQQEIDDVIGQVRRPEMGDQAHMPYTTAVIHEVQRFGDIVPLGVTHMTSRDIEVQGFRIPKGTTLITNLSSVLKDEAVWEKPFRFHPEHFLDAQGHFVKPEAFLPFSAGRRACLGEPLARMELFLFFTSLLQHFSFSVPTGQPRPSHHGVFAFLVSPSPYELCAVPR
Cytochrome P450 3A4, sequence (P08684 whole entry): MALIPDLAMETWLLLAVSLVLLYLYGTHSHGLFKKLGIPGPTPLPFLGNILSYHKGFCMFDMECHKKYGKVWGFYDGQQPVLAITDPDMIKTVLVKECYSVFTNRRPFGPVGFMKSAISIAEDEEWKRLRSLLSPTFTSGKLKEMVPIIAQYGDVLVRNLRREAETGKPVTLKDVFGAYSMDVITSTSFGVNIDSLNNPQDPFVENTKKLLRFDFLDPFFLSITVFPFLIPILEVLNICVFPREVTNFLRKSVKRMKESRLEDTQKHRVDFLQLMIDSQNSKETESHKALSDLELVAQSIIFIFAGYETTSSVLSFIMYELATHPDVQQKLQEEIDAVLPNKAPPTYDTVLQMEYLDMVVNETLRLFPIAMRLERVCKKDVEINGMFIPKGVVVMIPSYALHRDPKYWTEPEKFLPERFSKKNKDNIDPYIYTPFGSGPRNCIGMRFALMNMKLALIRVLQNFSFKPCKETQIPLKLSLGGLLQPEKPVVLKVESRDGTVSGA
Cytochrome P450 2C9, sequence (P11712 whole entry): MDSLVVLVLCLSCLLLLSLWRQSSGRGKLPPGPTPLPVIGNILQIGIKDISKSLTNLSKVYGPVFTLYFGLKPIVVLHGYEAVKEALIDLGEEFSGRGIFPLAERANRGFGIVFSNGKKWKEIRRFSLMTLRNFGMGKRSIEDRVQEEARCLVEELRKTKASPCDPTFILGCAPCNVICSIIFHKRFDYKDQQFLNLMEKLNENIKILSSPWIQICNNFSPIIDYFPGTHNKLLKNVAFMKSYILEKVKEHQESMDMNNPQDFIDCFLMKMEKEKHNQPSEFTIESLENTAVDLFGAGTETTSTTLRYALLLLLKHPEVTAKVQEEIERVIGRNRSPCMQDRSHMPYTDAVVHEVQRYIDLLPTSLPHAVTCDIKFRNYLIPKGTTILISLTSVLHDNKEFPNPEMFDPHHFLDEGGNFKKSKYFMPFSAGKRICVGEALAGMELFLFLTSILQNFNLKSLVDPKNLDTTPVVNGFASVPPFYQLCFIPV

Cc1cc(OCc2ccc([N+](=O)[O-])cc2)c2c3c(c(=O)oc2c1)CCCC3
AC50 (Cytochrome P450 2D6): 3.16 µM (inconclusive) | AC50 (Cytochrome P450 3A4): 2.82 µM (inconclusive)

COc1ccc(-c2cnnc(CCCn3ccnc3-c3ccccc3)n2)cc1
AC50 (Cytochrome P450 2C9): 0.0126 µM (inconclusive) | AC50 (Cytochrome P450 2C19; read-out: AC50): 7.94 µM (inconclusive)

Cc1cc(C)c(OCCCCN2CCC(C)CC2)c(Br)c1
IC50 [1]: 212 µM (active)

O=C(CCCC(=O)c1ccccc1)Nc1ccc(O)cc1
IC50 [1]: 15.8 µM (active)

C/C(=N\NC(=O)c1cc2ccccc2cc1O)c1cccs1
EC50 (Streptokinase A): > 150 µM (not active) | EC50 [2]: 44.7 µM (active) | EC50 [3]: > 60 µM (not active) | EC50 [4]: 18.3 µM (active) | EC50 (Streptococcus): 59.6 µM (active)

Fc1ccc(CSc2nnc(-c3ccccn3)o2)cc1
EC50 (H4): 0.175 µM (active) | EC50 [5]: 0.103 µM (active)

COC(=O)c1cc2c(ccc3ccccc32)oc1=O
IC50 (cells): 6.54 µM (active)

O=C1/C(=C/c2cccnc2)S/C(=N/Cc2ccccc2)N1Cc1ccccc1
EC50 (Streptokinase A): 14.7 µM (active) | EC50 [2]: 1.66 µM (active) | EC50 [3]: > 60 µM (not active) | EC50 [4]: 21.6 µM (active) | EC50 (Streptococcus): > 150 µM (not active)

O=C(c1cn(-c2ccccc2)nc1-c1cccs1)N1CCOCC1
AC50 (Cytochrome P450 2C9): 39.8 µM (inconclusive) | AC50 (Cytochrome P450 2C19; read-out: AC50): 39.8 µM (inconclusive)

CCCC1CCC(c2ccc(C(N)=O)cc2)CC1 (configuration not stated)
AC50 (Cytochrome P450 2C9): 0.0158 µM (inconclusive) | AC50 (Cytochrome P450 2C19): inconclusive

CC(C)(C)c1ccc(OCCC(=O)OCC(=O)NC2CC2)cc1
IC50 (cells): 48.5 µM (active)

O=C(NN=Cc1ccc(O)cc1O)c1ccccc1NS(=O)(=O)c1cccs1
IC50 [1]: 110 µM (active)

CCc1ccc(N(C(=O)CNC(=O)c2cccs2)C(C(=O)NC(C)(C)C)c2cc(OC)c(OC)c(OC)c2)cc1 (configuration not stated)
AC50 (Cytochrome P450 2C9): 28.2 µM (inconclusive) | AC50 (Cytochrome P450 2C19; read-out: AC50): 0.00794 µM (inconclusive)

O=C(CCNc1cccc(Cl)c1)c1cccs1
AC50 (Cytochrome P450 2D6): 22.4 µM (inconclusive) | AC50 (Cytochrome P450 2C9): 20 µM (inconclusive) | IC50 (cells): 20 µM (active)

CCSc1ncc(/C=N/Nc2ccc(F)cc2)n1C
AC50 (Cytochrome P450 3A4): 1.58 µM (inconclusive) | AC50 (Cytochrome P450 2C19; read-out: AC50): 0.0794 µM (inconclusive)

CCN(CC)c1ccc(NC(=O)COC(=O)CCC(=O)c2cccs2)cc1
IC50 [1]: 74.4 µM (active)

COc1ccc(OC(=O)c2cc(S(=O)(=O)N3CCCC3)ccc2Cl)cc1
IC50 [1]: 63 µM (active)

Fc1cccc2sc(N3CCCC3)nc12
IC50 (cells): > 50 µM (active)

CCOC(=O)C(=NCCOC)NNc1cc(Cl)ccc1Cl
IC50 (cells): > 50 µM (active)

O=S(=O)(Nc1nc2ccccc2nc1Cl)c1ccc2ccccc2c1
EC50 (Streptokinase A): 15.1 µM (active) | EC50 [4]: 9.62 µM (active) | EC50 (Streptococcus): > 150 µM (not active)

CN(C)/C=N/c1ncc(C(=O)c2ccccc2)s1
EC50 (H4): 119 µM (active) | EC50 [5]: 0.251 µM (active)

Clc1cc(Br)ccc1OCCOCCN1CCCC1
EC50 [2]: 1.46 µM (active) | EC50 [3]: > 60 µM (not active) | IC50 [1]: 135 µM (active)

N#CCSc1nc2ccc(N3CCOCC3)cc2c(=O)n1CCc1ccccc1
EC50 (Streptokinase A): > 150 µM (not active) | EC50 [4]: 7.19 µM (active) | EC50 (Streptococcus): 13.1 µM (active)

CC(=O)Nc1cccc(-c2csc(NCc3ccccc3)n2)c1
IC50 [1]: 65 µM (active)

COc1ccc(COC(=O)N/N=C2/C[C@@H](O)[C@@H](O)[C@@H]3[C@@H]4C(=O)N(c5cccc(Oc6ccccc6)c5)C(=O)[C@H]4CC[C@H]23)cc1
AC50 (Cytochrome P450 2D6): 2.51 µM (inconclusive)

CC(=O)n1c(COS(C)(=O)=O)nc2ccccc21
AC50 (Cytochrome P450 2D6): 5.01 µM (inconclusive) | AC50 (Cytochrome P450 3A4): 3.16 µM (inconclusive)

OC(COc1cccc2ccccc12)CN1CCN(c2cccc(Cl)c2)CC1 (configuration not stated)
EC50 (Streptokinase A): 20.1 µM (active) | EC50 [4]: 15.5 µM (active) | EC50 (Streptococcus): 31 µM (active)

COc1cccc(/C=N\NC(=O)c2cc(OCC(F)(F)F)ccc2OCC(F)(F)F)c1
AC50 (Cytochrome P450 3A4): 35.5 µM (inconclusive) | AC50 (Cytochrome P450 2C19; read-out: AC50): 0.891 µM (inconclusive)

O/C(=C\C=N\c1ccccc1O)c1ccco1
IC50 (cells): 4.76 µM (active)

CCC[C@@H]1C[C@@]1(CCC)C(NS(=O)(=O)c1cccc2cccnc12)c1ccc(Cl)cc1 (some centres not stated)
AC50 (Cytochrome P450 2D6): 39.8 µM (inconclusive)

COc1cc(/C=N/NC(=O)c2ccc(N3CCCC3=O)cc2)ccc1O
IC50 [1]: 30.8 µM (active)

CC1CCN(CCc2nc3cc(NC(=O)NC4CCCCC4)ccc3n2C)CC1
AC50 (Cytochrome P450 2D6): 25.1 µM (inconclusive)

O=C(COc1ccc(Nc2ccccc2)cc1)OCC(=O)N1CCCCC1
IC50 [1]: 98.2 µM (active) | IC50 (cells): 2.49 µM (active)

CCOC(=O)c1[nH]c(COC(=O)CCOc2ccccc2OC)c(C(=O)OCC)c1C
AC50 (Cytochrome P450 2D6): 15.8 µM (inconclusive)

COc1cc(CNCc2cccs2)ccc1OCC(=O)NC(C)(C)C
AC50 (Cytochrome P450 2D6): 10 µM (inconclusive)

O=C(Oc1ccccc1)c1ccc(NC(=O)c2ccco2)cc1
EC50 [6]: > 53 µM (inactive) | IC50 [7]: > 47.1 µM (inactive) | IC50 (cells): 4.4 µM (active)

CCOC(=O)C(C)(C)n1nnc(-c2ccc([N+](=O)[O-])cc2)n1
IC50 (cells): 45.9 µM (active)

O=c1c2ccccc2nc2oc3ccccc3n12
EC50 (H4): 0.139 µM (active) | EC50 [5]: 0.123 µM (active)

COc1ccc(-c2cc(=O)oc(-c3cccc(C)c3)n2)cc1
IC50 (cells): 35.9 µM (active)

O=C(Nc1cccc(C(F)(F)F)c1)c1cc2c(=O)c3ccccc3oc2nc1C(F)(F)F
EC50 (Streptokinase A): 43.3 µM (inconclusive) | EC50 [4]: 18.7 µM (active) | EC50 (Streptococcus): 65.1 µM (active)

O=C(CNC(=O)c1ccccn1)N/N=C/c1ccccc1
AC50 (Cytochrome P450 2C19; read-out: AC50): 17.8 µM (inconclusive)

CCCCNC(=O)Nc1nnc(-c2ccc(Cl)cc2)o1
IC50 (cells): 13.2 µM (active)

CCOC(=O)c1cnn(-c2nc(-c3ccccc3)cs2)c1C(F)(F)F
EC50 (Streptokinase A): 15.6 µM (active) | EC50 [4]: 14.6 µM (active) | EC50 (Streptococcus): > 150 µM (not active)

O=C(NCc1ccc(C(F)(F)F)cc1)c1ccc2c(c1)S(=O)(=O)c1ccccc1C2=O
EC50 (Streptokinase A): > 150 µM (not active) | EC50 [4]: > 150 µM (not active) | EC50 (Streptococcus): > 150 µM (not active)
